Earlier results as cited in US20070014819A1, “Method of emulsifying phytosterol by natural saponin,emulsion prepared thereby and water dispersible phytosterol powder product” (WECKTECK BIOTECHNOLOGY COMPANY LIMITED, priority 2005, published 2007).

What was measured:
[1] = around the world
[2] = administered orally directly
[3] = purified

Compound | people dead from the side effects [1] | absorption rate in a human body [2] | reduction of total cholesterol in blood (cholesterol in blood; daily intake of 1.4 g for one month) | reduction of the concentration of LDL (cholesterol in blood; daily intake of more than 1.3 g, FDA article) | solubility in water or oil and most solvents [3]
COCc1c(C(C)C)nc(C(C)C)c(/C=C/[C@@H](O)C[C@@H](O)CC(=O)O)c1-c1ccc(F)cc1 [Baycol, cerivastatin] | more than 100 people |  |  |  | 
CC(C)CCC[C@@H](C)[C@H]1CC[C@H]2[C@@H]3CC=C4C[C@@H](O)CC[C@]4(C)[C@H]3CC[C@]12C [cholesterol, reference compound] |  | more than 50% |  |  | 
β-sitosterol [phytosterol] |  | less than 5% | about 14% | effectively reduce | difficult to be dissolved
